The subject of series [1] is tau (NFTs) in human brain tissues. Put plainly: Autoradiography on postmortem human brain tissues. The format is binding. As for the experimental part:
Autoradiography The tracer [^18F][A] or [^18F][A]-d2 was dissolved in PBS containing 5% DMSO and 5% ethanol at final concentration 40 μCi/mL. Then 0.5 ml of stock solution was transferred to a microscope slide with 5 μm thick freshly dried section of a tissue and incubated for 90 min at room temperature. The slides were washed by dipping into following solutions: PBS for 1 min, 70% ethanol 2 min, 30% ethanol 2 min and PBS 1 min. The samples were dried at room temperature for 30 min and exposed to phosphorimager plate for 20 h. The exposed plates were scanned at 25 μm resolution.
Autoradiographic evaluation of [^18F][A] and [^18F][A]-d2 was performed using brain tissues collected postmortem from human donors. […] The positive staining was found in grey matter of tissues containing high level of NFTs and high AD-amyloid characterized as Braak score 5. […] The NFT and Aβ-amyloid burden was measured by standard immunohistochemical methods.

A short description of series [2]: Microsomal stability assay, mouse liver microsomes. Format: in vitro ADME. As to conditions: radiolabeled, 5 min, n=3. As for the experimental part:
(§1) Microsomal stability assays The tracer [^18F][A]-d2 or [^18F][A] was dissolved in potassium phosphate (Kpi) buffer (100 mM) at concentration 500-600 μCi/mL. The non-radioactive 7 and 10 were dissolved in Kpi buffer at 10 μM concentration. The reaction vessel was charged with human or mouse liver microsome suspension (12.5 μL, 20 mg/mL) followed by Kpi buffer (388 μL, 10 mM), NADPH (50 μL, 10 mM) and incubated at 37° C. for 5-10 min. A solution of the radioactive [^18F][A]-d2 or [^18F][A] (50 μL, 250-300 μCi) or non-radioactive 7 or 8 (50 μL, 10 μM) were added to the reaction vessel and the mixture was incubated at 37° C. Aliquots (50 μL) of the reaction mixture were taken at 5, 15 and 45 minutes post addition of the tested compound, mixed with ice-cold acetonitrile (100 μL) and centrifuged. The supernatant was analyzed by LCMS (System E).

Series [3] is described as follows: Microsomal stability assay, rhesus liver microsomes. The format is in vitro ADME. The procedure: as §1, with “E). The radiolabeled tracers [^18F][A] and [^18F][A]-d2 (n=3) were incubated with human, rhesus or mouse liver microsome suspension with or without NADPH at 37° C. and the mixture was analyzed for a presence of radioactive metabolites at 5, 15 and 45 min. In the presence of mouse and rhesus liver microsomes, both the [^18F][A] and [^18F][A]-d2 metabolized rapidly to ^18F-fluoride (retention time (rt)=0.38 min), and two radioactive metabolites M2 and M1 (rt=1.2 and 1.4 min). […]” for “E).”

Series [4] in a line: Dynamic PET in anesthetized rhesus. The format is in vivo. The settings on record: 370 MBq i.v. bolus, PET over 240 min, versus [18F][A] and 18F T807. As for the experimental part:
[^18F][A]-d2, [^18F][A] or ^18F T807 (see Chien et al., J. Alzheimers Dis, 38:171-84 (2014)) (370 MBq (10 mCi)) was intravenous bolus injected into an anesthetized rhesus, and dynamic PET data acquired over 240 minutes. […] Data was collected from the same animal but on different days for each probe.

In the case of `[2H]C([2H])([18F])CC1CCN(c2ccn3c(n2)nc2ccccc23)CC1` [[^18F][A]-d2, 1,1-dideutero-2-(1-(benzo[4,5]imidazo[1,2-a]pyrimidine-2-yl)piperidin-4-yl)-1-[^18F]fluoroethane], in series [1] (high or moderate amyloid burden but no NFTs, Braak score 3 or 2), the “staining of negative control tissues” value was “not positively stained”. Besides, the autoradiographic binding pattern entry in series [1] (human brain tissues, positive staining in grey matter with high NFTs, Braak score 5) is reported as “tau specific binding patterns”. In series [2], the “amount of parent compound” value amounted to 2.0±0.3%. Besides, the “stability of parent compound compared with mouse liver microsomes” value in series [3] is on record as “slightly more stable”. In addition, the “stability / skull uptake of free fluoride” value in series [4] is “increased stability reflected by a reduction of skull uptake of free fluoride”.

These data come from patent publication US12214058B2, “Imaging methods using deuterated compounds” (Genentech, Inc., priority 2014, dated 2025).
